Data taken from PubChem BioAssay AID2060493 (Molecular Pharmacology Branch, DTP, NCI, 2025).

System: 616215-338-R-J1-PDC tumor spheroids, viability
Test: Anticancer human tumor 616215-338-R-J1-PDC patient-derived colon adenocarcinoma cell line growth inhibition [GQUAD]
Conditions: spheroids with HUVEC and MSC; for IC50: curve of first compound; for viability, T/C: stronger effect = lower value
Method in brief: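 Viability of tumor cells grown as complex spheroids with endothelial and stromal cells, exposed to drug combinations. Top concentration at or near clinical Cmax (else 10 microM), diluted in half-log increments.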
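Note: spheroids exposed to agents for 7 days before readout.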
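Throughout, for viability, T/C: percent viability relative to DMSO vehicle control wells taken as 100%.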

Cc1[nH]c2ccccc2c1CCNCc1ccc(/C=C/C(=O)NO)cc1 + Cc1[nH]c2ccc(F)cc2c1-c1nc2c3cccnc3c3ncccc3c2[nH]1
IC50 (second compound 0.0316 µM): 145 nM | IC50 (second compound 0.1 µM): 178 nM | IC50 (second compound 0.316 µM): 162 nM | IC50 (second compound 1 µM): 131 nM | IC50 (second compound 3.16 µM): 132 nM | IC50 (second compound 10 µM): 125 nM | viability, T/C (second compound 0.0316 µM, first compound 0.000999 µM): 110% | viability, T/C (second compound 0.0316 µM, first compound 0.00316 µM): 98.6% | viability, T/C (second compound 0.0316 µM, first compound 0.00999 µM): 95.8% | viability, T/C (second compound 0.0316 µM, first compound 0.0316 µM): 108% | viability, T/C (second compound 0.0316 µM, first compound 0.0999 µM): 67.6% | viability, T/C (second compound 0.0316 µM, first compound 0.316 µM): 13.2% | viability, T/C (second compound 0.1 µM, first compound 0.000999 µM): 93.6% | viability, T/C (second compound 0.1 µM, first compound 0.00316 µM): 96.6% | viability, T/C (second compound 0.1 µM, first compound 0.00999 µM): 94.4% | viability, T/C (second compound 0.1 µM, first compound 0.0316 µM): 97% | viability, T/C (second compound 0.1 µM, first compound 0.0999 µM): 89.6% | viability, T/C (second compound 0.1 µM, first compound 0.316 µM): 10.9% | viability, T/C (second compound 0.316 µM, first compound 0.000999 µM): 99.5% | viability, T/C (second compound 0.316 µM, first compound 0.00316 µM): 109% | viability, T/C (second compound 0.316 µM, first compound 0.00999 µM): 104% | viability, T/C (second compound 0.316 µM, first compound 0.0316 µM): 97.9% | viability, T/C (second compound 0.316 µM, first compound 0.0999 µM): 79.8% | viability, T/C (second compound 0.316 µM, first compound 0.316 µM): 9.21% | viability, T/C (second compound 1 µM, first compound 0.000999 µM): 102% | viability, T/C (second compound 1 µM, first compound 0.00316 µM): 98.5% | viability, T/C (second compound 1 µM, first compound 0.00999 µM): 93.1% | viability, T/C (second compound 1 µM, first compound 0.0316 µM): 101% | viability, T/C (second compound 1 µM, first compound 0.0999 µM): 62% | viability, T/C (second compound 1 µM, first compound 0.316 µM): 10.9% | viability, T/C (second compound 3.16 µM, first compound 0.000999 µM): 98% | viability, T/C (second compound 3.16 µM, first compound 0.00316 µM): 92.6% | viability, T/C (second compound 3.16 µM, first compound 0.00999 µM): 100% | viability, T/C (second compound 3.16 µM, first compound 0.0316 µM): 94% | viability, T/C (second compound 3.16 µM, first compound 0.0999 µM): 62.7% | viability, T/C (second compound 3.16 µM, first compound 0.316 µM): 10.8% | viability, T/C (second compound 10 µM, first compound 0.000999 µM): 99.7% | viability, T/C (second compound 10 µM, first compound 0.00316 µM): 99.5% | viability, T/C (second compound 10 µM, first compound 0.00999 µM): 103% | viability, T/C (second compound 10 µM, first compound 0.0316 µM): 95.1% | viability, T/C (second compound 10 µM, first compound 0.0999 µM): 59.9% | viability, T/C (second compound 10 µM, first compound 0.316 µM): 8.56%
